# Measurements from paper PMC8617031, “Development of a BCL-xL and BCL-2 dual degrader with improved anti-leukemic activity,” (Nature Communications, 2021).
# Where “and” joins values, the source holds several entries; their conditions need not be identical. Identical values can stand only once.
# Legend:
# His-tagged BCL-xL = target: T1, His-tagged BCL-xL (Homo sapiens, UniProt Q07817); experiment: AlphaScreen competitive binary binding, BCL-xL (biotin-BAD peptide)
# T1 construct: purchased Sigma-Aldrich SRP0187
# Experimental: (§1) The reagents were diluted in a buffer containing 250 mM HEPES pH 7.5, 1 M NaCl, 1% BSA, and 0.05% Tween-80. His-tagged BCL-xL (0.5 nM, Cat. No. SRP0187, Sigma-Aldrich) or BCL-2 (1 nM, Cat. No. SRP0186, Sigma-Aldrich) were incubated with serial diluted 753a or 753b and 2 nM biotin-tagged BAD (biotin-[…] amino-terminal, AnaSpec, for BCL-xL) or 10 nM BIM peptides (biotin-[…] N-terminal, AnaSpec, for BCL-2) to a final volume of 40 µl in a 96-well PCR plate. […] After incubation for 2 h, 5 µl 6× His-acceptor beads (Cat. No. AL128M, PerkinElmer) were added to each well at 20 µg/ml final concentration and incubated for 1 h. Then 5 µl streptavidin-donor beads were added (Cat. No. 6760002, PerkinElmer) to each well at 20 µg/ml final concentration and incubated for 45 min. At the end of the incubation period, 17 µl of each sample was transferred in adjacent wells of 384-well proxy plate (Cat. No. 6008280, PerkinElmer). The plate was scanned using the Alpha program on Biotek’s Synergy Neo2 multimode plate reader. The inhibition constant (Ki) was calculated using the non-linear regression, one site, competitive binding, Fit Ki function on GraphPad Prism 9 software, based on experimentally determined dissociation constant (Kd) for each protein–peptide pair.
# His-tagged BCL-2 = target: T2, His-tagged BCL-2 (Homo sapiens, UniProt P10415); experiment: AlphaScreen competitive binary binding, BCL-2 (biotin-BIM peptide)
# T2 construct: purchased Sigma-Aldrich SRP0186
# Experimental: as §1
# 293T cells = experiment: Viability (MTS) of 293T cells; assay type: cell-based, human; details: normalised to own plate; for 293T cell viability, MTS absorbance 490 as percent of untreated control, mean of three wells: mean of 3 wells
# Experimental: (§2) Suspension cells were treated 30 min after seeding, whereas adherent cells were allowed to adhere overnight and were then treated. Compound treatments were prepared in complete cell culture medium and 100 µl of 2× treatment-containing medium were added to each well. Complete cell culture medium without treatment was added in control wells, and wells containing medium without cells served as background. The outer wells of the 96-well plate were not used for treatment and were filled with 250 µl of PBS to reduce evaporation of medium from inner wells. Each compound and/or combination was tested at nine different concentrations with three replicates. The cell viability was measured after 72 h by tetrazolium-based MTS assay. MTS reagent (2 mg ml^–1 stock; cat. no. G1111, Promega) was freshly supplemented with phenazine methosulfate (PMS, 0.92 mg ml^–1 stock, cat. no. P9625, Sigma-Aldrich) in 20:1 ratio, and 20 µl of this mixture was added to each control and treatment well. The cells were incubated for 4 h at 37 °C and 5% CO2, and then the absorbance was recorded at 490 nm using Biotek’s Synergy Neo2 multimode plate reader (Biotek). The average absorbance value of background wells was subtracted from absorbance value of each control and treatment well, and percent cell viability ((At/A0) × 100)) was determined in each treatment well, where At is the absorbance value of the treatment well and A0 is the average absorbance value of control wells after background subtraction. The data were expressed as average percentage cell viability and fitted in non-linear regression curves using GraphPad Prism 7 (GraphPad Software, La Jolla, CA, USA).
# Hela cells = experiment: Viability (MTS) of Hela cells; assay type: cell-based, human; details: for cell viability normalised to control wells (single replicate): in % (unit assumed)
# Experimental: as §2
# [1] = AlphaScreen, Supplementary Fig. 6
# [2] = MTS absorbance 490, Conc 0.00137174 uM
# [3] = MTS absorbance 490, Conc 0.00411523 uM
# [4] = MTS absorbance 490, Conc 0.037037 uM
# [5] = MTS absorbance 490, Conc 0.111111 uM
# [6] = MTS absorbance 490, Conc 0.333333 uM
# T1 sequence (Q07817 whole entry): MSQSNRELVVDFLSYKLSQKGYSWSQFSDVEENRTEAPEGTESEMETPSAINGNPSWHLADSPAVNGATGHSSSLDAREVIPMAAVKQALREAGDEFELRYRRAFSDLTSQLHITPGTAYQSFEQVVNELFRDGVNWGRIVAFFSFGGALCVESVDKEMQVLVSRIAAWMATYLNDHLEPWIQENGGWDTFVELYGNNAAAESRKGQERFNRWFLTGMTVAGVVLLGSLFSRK
# T2 sequence (P10415 whole entry): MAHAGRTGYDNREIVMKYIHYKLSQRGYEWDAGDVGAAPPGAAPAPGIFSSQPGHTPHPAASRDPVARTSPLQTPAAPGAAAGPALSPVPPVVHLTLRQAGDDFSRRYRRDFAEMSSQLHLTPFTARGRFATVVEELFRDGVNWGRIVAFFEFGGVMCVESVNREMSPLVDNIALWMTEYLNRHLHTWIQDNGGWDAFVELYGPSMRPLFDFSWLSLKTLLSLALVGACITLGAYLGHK
compound,measurement,setting,value
Cc1ncsc1-c1ccc([C@H](C)NC(=O)[C@@H]2C[C@@H](O)CN2C(=O)[C@@H](NC(=O)CCCCCCC(=O)N2CCN(C[C@]3(C)CCC(c4ccc(Cl)cc4)=C(CN4CCN(c5ccc(C(=O)NS(=O)(=O)c6ccc(N[C@H](CCN7CCOCC7)CSc7ccccc7)c(S(=O)(=O)C(F)(F)F)c6)cc5)CC4)C3)CC2)C(C)(C)C)cc1 [753b],binary binding affinity to BCL-xL (in words),His-tagged BCL-xL; [1],much weaker than that of the warhead ABT263
same,IC50,His-tagged BCL-xL; BCL-xL Rep-1,25.6 nM
same,Ki,His-tagged BCL-xL; BCL-xL Rep-1,1.15 nM
same,Alpha signal (raw counts),"His-tagged BCL-xL; BCL-xL Rep-1, plate row B, 5 uM",34683 and 41080
same,Alpha signal (raw counts),"His-tagged BCL-xL; BCL-xL Rep-1, plate row D, 0.3125 uM",104729 and 120739
same,Alpha signal (raw counts),"His-tagged BCL-xL; BCL-xL Rep-1, plate row E, 0.078125 uM",342247 and 341354
same,Alpha signal (raw counts),"His-tagged BCL-xL; BCL-xL Rep-1, plate row F, 0.0195312 uM",676907 and 757834
same,Alpha signal (raw counts),"His-tagged BCL-xL; BCL-xL Rep-1, plate row G, 0.00488281 uM",979745 and 1069221
same,Alpha signal (raw counts),"His-tagged BCL-xL; BCL-xL Rep-1, plate row H, 0.0012207 uM",1220627 and 1147140
same,Alpha signal (raw counts),"His-tagged BCL-xL; BCL-xL Rep-1, plate row I, 0.000305176 uM",1208908 and 1239363
same,Alpha signal (raw counts),"His-tagged BCL-xL; BCL-xL Rep-1, plate row J, 7.62939e-5 uM",1272719 and 1257225
same,Alpha signal (raw counts),"His-tagged BCL-xL; BCL-xL Rep-1, plate row K, 1.90735e-5 uM",1178982 and 1221697
same,Alpha signal (raw counts),"His-tagged BCL-xL; BCL-xL Rep-2, 7.62939e-5 uM",1287481 and 1327839
same,Alpha signal (raw counts),"His-tagged BCL-xL; BCL-xL Rep-2, plate row B, 5 uM",27681 and 27423
same,Alpha signal (raw counts),"His-tagged BCL-xL; BCL-xL Rep-2, plate row C, 1.25 uM",19946 and 33165
same,Alpha signal (raw counts),"His-tagged BCL-xL; BCL-xL Rep-2, plate row D, 0.3125 uM",104103 and 115603
same,Alpha signal (raw counts),"His-tagged BCL-xL; BCL-xL Rep-2, plate row E, 0.078125 uM",336015 and 412856
same,Alpha signal (raw counts),"His-tagged BCL-xL; BCL-xL Rep-2, plate row F, 0.0195312 uM",814066 and 879407
same,Alpha signal (raw counts),"His-tagged BCL-xL; BCL-xL Rep-2, plate row G, 0.00488281 uM",1170961 and 1327234
same,Alpha signal (raw counts),"His-tagged BCL-xL; BCL-xL Rep-2, plate row H, 0.0012207 uM",1347085 and 1401728
same,Alpha signal (raw counts),"His-tagged BCL-xL; BCL-xL Rep-2, plate row I, 0.000305176 uM",1445114 and 1473085
same,Alpha signal (raw counts),"His-tagged BCL-xL; BCL-xL Rep-2, plate row K, 1.90735e-5 uM",1348563 and 1319629
same,Ki,"His-tagged BCL-xL; BCL-xL, mean of the two replicate values (line without label)",1.31 nM
same,Ki,"His-tagged BCL-xL; BCL-xL, second value (line without label below Rep-1, apparently Rep-2)",1.48 nM
same,binary binding affinity to BCL-2 (in words),His-tagged BCL-2; [1],much weaker than that of the warhead ABT263
same,Alpha signal (raw counts),"His-tagged BCL-2; BCL-2 Rep-2, 0.00488281 uM",394963 and 403008
same,Alpha signal (raw counts),"His-tagged BCL-2; BCL-2 Rep-2, plate row B, 5 uM",11331 and 13334
same,Alpha signal (raw counts),"His-tagged BCL-2; BCL-2 Rep-2, plate row C, 1.25 uM",13467 and 22674
same,Alpha signal (raw counts),"His-tagged BCL-2; BCL-2 Rep-2, plate row D, 0.3125 uM",16676 and 24219
same,Alpha signal (raw counts),"His-tagged BCL-2; BCL-2 Rep-2, plate row E, 0.078125 uM",24600 and 21594
same,Alpha signal (raw counts),"His-tagged BCL-2; BCL-2 Rep-2, plate row F, 0.0195312 uM",68045
same,Alpha signal (raw counts),"His-tagged BCL-2; BCL-2 Rep-2, plate row F, 0.0195312 uM, listed as 753B",74511
same,Alpha signal (raw counts),"His-tagged BCL-2; BCL-2 Rep-2, plate row H, 0.0012207 uM",630958 and 595808
same,Alpha signal (raw counts),"His-tagged BCL-2; BCL-2 Rep-2, plate row I, 0.000305176 uM",751084 and 777257
same,Alpha signal (raw counts),"His-tagged BCL-2; BCL-2 Rep-2, plate row J, 7.62939e-5 uM",760517 and 786817
same,Alpha signal (raw counts),"His-tagged BCL-2; BCL-2 Rep-2, plate row K, 1.90735e-5 uM",880286 and 989418
same,"293T cell viability, MTS absorbance 490 as percent of untreated control, mean of three wells",293T cells; 0.00137174 uM,105.831
same,"293T cell viability, MTS absorbance 490 as percent of untreated control, single replicate well",293T cells; 0.00137174 uM,104.459 and 107.926 and 105.109
same,"293T cell viability, MTS absorbance 490 as percent of untreated control, mean of three wells",293T cells; 0.00411523 uM,107.998
same,"293T cell viability, MTS absorbance 490 as percent of untreated control, single replicate well",293T cells; 0.00411523 uM,111.934 and 109.117 and 102.943
same,"293T cell viability, MTS absorbance 490 as percent of untreated control, mean of three wells",293T cells; 0.037037 uM,108.72
same,"293T cell viability, MTS absorbance 490 as percent of untreated control, single replicate well",293T cells; 0.037037 uM,111.175 and 116.05 and 98.9348
same,"293T cell viability, MTS absorbance 490 as percent of untreated control, mean of three wells",293T cells; 0.111111 uM,112.8
same,"293T cell viability, MTS absorbance 490 as percent of untreated control, single replicate well",293T cells; 0.111111 uM,120.383 and 115.183 and 102.834
same,"293T cell viability, MTS absorbance 490 as percent of untreated control, mean of three wells",293T cells; 0.333333 uM,109.37
same,"293T cell viability, MTS absorbance 490 as percent of untreated control, single replicate well",293T cells; 0.333333 uM,118.975 and 109.225 and 99.9097
same,"293T cell viability, MTS absorbance 490 as percent of untreated control, mean of three wells",293T cells; 1 uM,114.606
same,"293T cell viability, MTS absorbance 490 as percent of untreated control, single replicate well",293T cells; 1 uM,117.133 and 117.566 and 109.117
same,"293T cell viability, MTS absorbance 490 as percent of untreated control, mean of three wells",293T cells; 3 uM,79.3284
same,"293T cell viability, MTS absorbance 490 as percent of untreated control, single replicate well",293T cells; 3 uM,74.5622 and 86.911 and 76.512
same,cell viability normalised to control wells (mean of three replicates),Hela cells; [2],101.835
same,cell viability normalised to control wells (single replicate),Hela cells; [2],103.801 and 94.6965 and 107.009
same,cell viability normalised to control wells (mean of three replicates),Hela cells; [3],93.0491
same,cell viability normalised to control wells (single replicate),Hela cells; [3],98.1647 and 87.1532 and 93.8295
same,cell viability normalised to control wells (mean of three replicates),Hela cells; [4],95.159
same,cell viability normalised to control wells (single replicate),Hela cells; [4],94.6965 and 88.7139 and 102.066
same,cell viability normalised to control wells (mean of three replicates),Hela cells; [5],93.078
same,cell viability normalised to control wells (single replicate),Hela cells; [5],90.1012 and 81.2572 and 107.876
same,cell viability normalised to control wells (mean of three replicates),Hela cells; [6],93.8295
same,cell viability normalised to control wells (single replicate),Hela cells; [6],79.8699 and 97.9913 and 103.627
same,cell viability normalised to control wells (mean of three replicates),"Hela cells; MTS absorbance 490, Conc 1 uM",89.5809
same,cell viability normalised to control wells (single replicate),"Hela cells; MTS absorbance 490, Conc 1 uM",76.4884 and 93.6561 and 98.5983
same,cell viability normalised to control wells (mean of three replicates),"Hela cells; MTS absorbance 490, Conc 3 uM",87.6734
same,cell viability normalised to control wells (single replicate),"Hela cells; MTS absorbance 490, Conc 3 uM",75.7081 and 83.5116 and 103.801
